Read-outs that look alike come from different tables or passages of the source.
System: human cytotoxic T-lymphocyte responses
Assay: Inhibition of human CTL responses (mixed leukocyte-tumor cultures, HT-144 melanoma, ^51 Cr release)
Format: cell-based
Conditions: for inhibition at 10 µM / inhibition at 1 µM / inhibition at 0.1 µM: Homo sapiens, T-lymphocyte, read-out: Inhibition of CTL activity (%); for inhibition at 10 µM / inhibition at 1 µM / inhibition at 0.1 µM / CTL activity (% specific ^51 Cr release): 0.1% ethanol
Outline: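 Effector CTLs came from 6-day mixed leukocyte–tumor cultures of donor PBMC with irradiated stimulator cells plus 1×10^-5 M hydrocortisone. Effectors were added to adhered ^51Cr-labelled target cells overnight at 37 °C; specific ^51Cr release gave percent inhibition, mean±SEM of triplicates.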

[1] = Test 1, donor I, 1 × 10^-5 molar, effector to target 6:1
[2] = Test 1, donor I, 1 × 10^-6 molar, effector to target 6:1
[3] = Test 2, donor II, 1 × 10^-6 molar, effector to target 6:1
[4] = Test 2, donor II, 1 × 10^-7 molar, effector to target 6:1
[5] = Test 1, donor I, 1 × 10^-7 molar, effector to target 6:1
[6] = Test 2, donor III, 1 × 10^-6 molar, effector to target 32:1
[7] = Test 2, donor III, 1 × 10^-7 molar, effector to target 32:1
[8] = Test 3, donor IV, 1 × 10^-6 molar, effector to target 24:1
[9] = Test 3, donor IV, 1 × 10^-7 molar, effector to target 24:1

| SMILES | inhibition at 10 µM [1] | inhibition at 1 µM [2] | inhibition at 1 µM [3] | inhibition at 0.1 µM [4] | suppression of generation of human cytotoxic T-lymphocytes (in words) (Table IV) | CTL activity (% specific ^51 Cr release) [1] | CTL activity (% specific ^51 Cr release) [2] | CTL activity (% specific ^51 Cr release) [3] | CTL activity (% specific ^51 Cr release) [4] | inhibition at 0.1 µM [5] | inhibition at 1 µM [6] | inhibition at 0.1 µM [7] | inhibition at 1 µM [8] | inhibition at 0.1 µM [9] | CTL activity (% specific ^51 Cr release) [5] | CTL activity (% specific ^51 Cr release) [6] | CTL activity (% specific ^51 Cr release) [7] | CTL activity (% specific ^51 Cr release) [8] | CTL activity (% specific ^51 Cr release) [9] |
| --- | --- | --- | --- | --- | --- | --- | --- | --- | --- | --- | --- | --- | --- | --- | --- | --- | --- | --- | --- |
| C=C1/C(=C\C=C2/CCC[C@]3(C)[C@@H]([C@H](C)C[C@H](O)CC(C)(C)O)CC[C@@H]23)C[C@@H](O)C[C@@H]1O [1α,23S,25-(OH)3 --D3, 1α,23S,25-Trihydroxycholecalciferol] | 95% | 72% | 62% | 73% | suppressed the generation of human cytotoxic T-lymphocytes | 2 ± 3 % specific ^51 Cr release | 12 ± 3 % specific ^51 Cr release | 14 ± 7 % specific ^51 Cr release | 10 ± 2 % specific ^51 Cr release |  |  |  |  |  |  |  |  |  |  |
| C=C1/C(=C\C=C2/CCC[C@]3(C)[C@@H]([C@H](C)/C=C/[C@H](C)[C@](C)(O)CO)CC[C@@H]23)C[C@@H](O)C[C@@H]1O [1α,25S,26-(OH)3 --D2, 1α,25S,26-Trihydroxyergocalciferol] |  | 54% |  |  |  |  | 17 ± 4 % specific ^51 Cr release |  |  | 76% | 100% | 87% | 82% | 40% | 9 ± 2 % specific ^51 Cr release | -4 ± 2 % specific ^51 Cr release | 7 ± 2 % specific ^51 Cr release | 10 ± 2 % specific ^51 Cr release | 34 ± 10 % specific ^51 Cr release |
| C=C1/C(=C\C=C2/CCC[C@]3(C)[C@@H]([C@H](C)C=CC[C@](C)(O)CO)CC[C@@H]23)C[C@@H](O)C[C@@H]1O [1α,25S,26-(OH)3 --Δ^22 -D3, 1α,25S,26-Trihydroxy-Δ^22-cholecalciferol] | 63% | 70% | 49% | 97% |  | 16 ± 4 % specific ^51 Cr release | 13 ± 8 % specific ^51 Cr release | 19 ± 4 % specific ^51 Cr release | 1 ± 4 % specific ^51 Cr release |  |  |  |  |  |  |  |  |  |  |

From patent US4749710A, “Immunosuppressive agents” (priority 1985, dated 1988)
